Assay results: PubChem BioAssay (NCI)
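96-well plates; 48 h exposure; 5 concentrations. Endpoints by linear interpolation between flanking doses. Not reached: highest tested concentration assigned. TGI is the concentration that stops growth completely.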

Assays:
Assay in all cases: NCI tumour cell line growth inhibition, 48 h
MALME-3M melanoma = tested on: MALME-3M melanoma
786-0 renal = tested on: 786-0 renal
HL-60(TB) leukemia = tested on: HL-60(TB) leukemia
SW-620 colon = tested on: SW-620 colon
UACC-62 melanoma = tested on: UACC-62 melanoma
LOX IMVI melanoma = tested on: LOX IMVI melanoma
HS 578T breast = tested on: HS 578T breast
SK-OV-3 ovarian = tested on: SK-OV-3 ovarian
A549 NSCLC = tested on: A549 NSCLC
M14 melanoma = tested on: M14 melanoma
HOP-62 NSCLC = tested on: HOP-62 NSCLC
SN12C renal = tested on: SN12C renal
NCI/ADR-RES ovarian = tested on: NCI/ADR-RES ovarian
DU-145 prostate = tested on: DU-145 prostate
CAKI-1 renal = tested on: CAKI-1 renal
SK-MEL-28 melanoma = tested on: SK-MEL-28 melanoma
SK-MEL-2 melanoma = tested on: SK-MEL-2 melanoma
MCF7 breast = tested on: MCF7 breast
SF-295 CNS = tested on: SF-295 CNS
RPMI-8226 leukemia = tested on: RPMI-8226 leukemia

SMILES | TGI (MALME-3M melanoma) | TGI (786-0 renal) | TGI (HL-60(TB) leukemia) | TGI (SW-620 colon) | TGI (UACC-62 melanoma) | TGI (LOX IMVI melanoma) | TGI (HS 578T breast) | TGI (SK-OV-3 ovarian) | TGI (A549 NSCLC) | TGI (M14 melanoma) | TGI (HOP-62 NSCLC) | TGI (SN12C renal) | TGI (NCI/ADR-RES ovarian) | TGI (DU-145 prostate) | TGI (CAKI-1 renal) | TGI (SK-MEL-28 melanoma) | TGI (SK-MEL-2 melanoma) | TGI (MCF7 breast) | TGI (SF-295 CNS) | TGI (RPMI-8226 leukemia)
O=C1NC(=O)[C@@H](OCC2CCCCC2)[C@@H]2OCC3OC(C(O)C3O)C12 (stereo partly specified) | > 100 µM | > 100 µM | > 100 µM | > 100 µM | > 100 µM | > 100 µM | > 100 µM | > 100 µM | > 100 µM | > 100 µM | > 100 µM | > 100 µM | > 100 µM | > 100 µM | > 100 µM | > 100 µM | > 100 µM | > 100 µM | > 100 µM | –
CN(C)/N=C1\C=C2CC[C@H](O[Si](C)(C)C(C)(C)C)[C@@]2(C)CC1 | 30.8 µM | 31.9 µM | 26.5 µM | 31.9 µM | 30.4 µM | 34.4 µM | 43.9 µM | 68.2 µM | 34.8 µM | 33 µM | 32.6 µM | – | 34.5 µM | 33.2 µM | 27.3 µM | 29.5 µM | 30.4 µM | 31.5 µM | 30 µM | 22 µM
CCN(CC)CCOc1ccc(N2Cc3ccccc3C2=O)cc1 | > 10 µM | > 10 µM | > 10 µM | > 10 µM | > 10 µM | > 10 µM | > 10 µM | > 10 µM | > 10 µM | > 10 µM | > 10 µM | > 10 µM | > 10 µM | > 10 µM | > 10 µM | > 10 µM | > 10 µM | > 10 µM | > 10 µM | > 10 µM
COC(=O)/C=C\[C@@H]1[C@H](C)N1S(=O)(=O)c1ccc(C)cc1 (stereo partly specified) | > 100 µM | > 100 µM | > 100 µM | > 100 µM | > 100 µM | > 100 µM | > 100 µM | > 100 µM | > 100 µM | > 100 µM | > 100 µM | > 100 µM | > 100 µM | > 100 µM | > 100 µM | > 100 µM | > 100 µM | > 100 µM | > 100 µM | > 100 µM
CC(O)CCNC(=O)Nc1c(C(F)(F)F)cc(-c2ccccc2)[nH]c1=O (stereo unspecified) | > 100 µM | > 100 µM | > 100 µM | > 100 µM | > 100 µM | > 100 µM | > 100 µM | > 100 µM | > 100 µM | > 100 µM | > 100 µM | > 100 µM | > 100 µM | > 100 µM | > 100 µM | > 100 µM | > 100 µM | > 100 µM | > 100 µM | > 100 µM
CCCCC1C(=O)N(c2ccc(S(=O)(=O)Nc3ccccn3)cc2)N(c2ccc(O)c(C(=O)O)c2)C1=O (stereo unspecified) | > 100 µM | > 100 µM | > 100 µM | > 100 µM | > 100 µM | > 100 µM | > 100 µM | > 100 µM | > 100 µM | > 100 µM | – | > 100 µM | > 100 µM | > 100 µM | > 100 µM | > 100 µM | > 100 µM | > 100 µM | > 100 µM | > 100 µM
O=C1N[C@H]2C(=O)c3c(Cl)sc(Cl)c3[C@H]2O1 | 33 µM | 31.3 µM | 4.91 µM | 5.4 µM | 28.2 µM | 6.97 µM | 67.1 µM | 28.9 µM | 40 µM | 19.6 µM | 34.5 µM | 30.3 µM | > 71.5 µM | 23.7 µM | 9.7 µM | 23.2 µM | 43.4 µM | 52.5 µM | 32.1 µM | 59.1 µM
N#C/C(=C\c1ccc(F)cc1)c1nc2ccccc2c(=O)[nH]1 | > 100 µM | > 100 µM | > 100 µM | > 100 µM | > 100 µM | > 100 µM | > 100 µM | > 100 µM | > 100 µM | > 100 µM | > 100 µM | > 100 µM | > 100 µM | > 100 µM | > 100 µM | > 100 µM | > 100 µM | > 100 µM | > 100 µM | > 100 µM
COc1ccc(C2C3=C(COC3=O)OC(C)(C)Oc3cc4c(cc32)OCO4)cc1 (stereo unspecified) | > 100 µM | > 100 µM | > 61.3 µM | > 100 µM | > 66.6 µM | > 86.8 µM | > 100 µM | > 100 µM | > 100 µM | > 100 µM | > 100 µM | > 100 µM | > 81.6 µM | > 100 µM | > 86.9 µM | > 100 µM | > 100 µM | > 100 µM | > 100 µM | > 100 µM
COc1cccc(CCn2c(N)c(C(=O)O)c3ccc([N+](=O)[O-])cc3c2=O)c1 | > 100 µM | > 100 µM | > 100 µM | > 100 µM | > 100 µM | > 100 µM | > 100 µM | > 100 µM | > 100 µM | > 100 µM | > 100 µM | > 100 µM | 89.7 µM | > 100 µM | > 100 µM | > 100 µM | 68.3 µM | 57.7 µM | > 100 µM | > 100 µM
N#Cc1nc(Sc2cnsn2)c(Sc2cnsn2)nc1C#N | 33.3 µM | 33.6 µM | 6.24 µM | > 22.5 µM | 32.5 µM | 50.2 µM | 43 µM | 32.1 µM | > 77.4 µM | 60.7 µM | 42.4 µM | 56.3 µM | 54.3 µM | 35.5 µM | 12.5 µM | 53.6 µM | 47 µM | > 59.1 µM | > 58.8 µM | > 100 µM
COc1cc(/C=C/C=C2\CCC/C(=C\C=C\c3ccc(O)c(OC)c3)C2=O)ccc1O | 44.8 µM | 63.5 µM | > 100 µM | 51.1 µM | 31.6 µM | 33.5 µM | > 100 µM | > 100 µM | 26.8 µM | > 100 µM | 52.7 µM | 65.8 µM | 48.8 µM | > 100 µM | 34.2 µM | 30.2 µM | 87.5 µM | 36 µM | 27 µM | 28.5 µM
CS(=O)(=O)N1CC(CCl)c2ccc(NCCN)cc21 (stereo unspecified) | > 100 µM | 72 µM | > 100 µM | > 100 µM | – | > 100 µM | > 100 µM | 87.9 µM | > 100 µM | > 100 µM | 32.1 µM | > 100 µM | > 100 µM | > 100 µM | > 100 µM | > 100 µM | > 100 µM | > 100 µM | – | > 100 µM
COc1cc(OC)cc(-n2c(N)c(-c3nc4ccccc4s3)c3ccc([N+](=O)[O-])cc3c2=O)c1 | > 100 µM | > 100 µM | 13 µM | > 100 µM | > 100 µM | > 100 µM | > 100 µM | > 100 µM | – | – | – | 82.8 µM | > 100 µM | > 100 µM | > 100 µM | > 100 µM | – | > 100 µM | > 100 µM | > 100 µM
CN(C)CCn1c(=O)oc2cc(C(=O)CN3CCOCC3)ccc21 | > 100 µM | > 100 µM | > 100 µM | > 100 µM | > 100 µM | > 100 µM | > 100 µM | > 100 µM | – | > 100 µM | > 100 µM | > 100 µM | > 100 µM | > 100 µM | > 100 µM | > 100 µM | > 100 µM | > 100 µM | > 100 µM | > 100 µM
CCNc1nc(N)c(C(=O)c2cccs2)s1 | > 100 µM | > 100 µM | 21.9 µM | > 100 µM | 51.8 µM | > 100 µM | > 100 µM | > 100 µM | > 100 µM | > 100 µM | > 100 µM | > 100 µM | > 100 µM | > 100 µM | 59.9 µM | > 100 µM | 45 µM | > 100 µM | > 100 µM | –
CN(C)Cc1cc(N=Nc2ccccc2Cl)ccc1O | 25.9 µM | 35.4 µM | 29.3 µM | 28 µM | 40.9 µM | 25.3 µM | 48.4 µM | > 100 µM | 25.3 µM | 44.5 µM | 26.2 µM | > 100 µM | 74.7 µM | 71.4 µM | 56.6 µM | 32.3 µM | – | 33.5 µM | 41.2 µM | 81.4 µM
CC(C)C(C/C=C1/CC(CO)(COC(=O)C(C)(C)C)OC1=O)C(C)C (stereo unspecified) | 19.2 µM | 18.2 µM | 16.2 µM | 19 µM | 26 µM | 28.4 µM | 11 µM | 30.7 µM | 15.3 µM | 24.4 µM | 18.8 µM | 23.3 µM | 36.6 µM | 23.4 µM | 17.9 µM | 30.6 µM | 29.9 µM | 35.6 µM | 17.9 µM | –
c1cc2[nH]snc2c2cncc12 | > 100 µM | > 100 µM | > 100 µM | > 100 µM | > 100 µM | > 100 µM | > 100 µM | > 100 µM | > 100 µM | – | > 100 µM | > 100 µM | > 100 µM | > 100 µM | > 100 µM | > 100 µM | > 100 µM | > 100 µM | > 100 µM | > 100 µM
